Target: T1, Bombesin receptor subtype‐3 (BRS‐3) (Rattus norvegicus, UniProt Q8K418)
T1 construct: gene Brs3
T1 sequence (Q8K418 1-399): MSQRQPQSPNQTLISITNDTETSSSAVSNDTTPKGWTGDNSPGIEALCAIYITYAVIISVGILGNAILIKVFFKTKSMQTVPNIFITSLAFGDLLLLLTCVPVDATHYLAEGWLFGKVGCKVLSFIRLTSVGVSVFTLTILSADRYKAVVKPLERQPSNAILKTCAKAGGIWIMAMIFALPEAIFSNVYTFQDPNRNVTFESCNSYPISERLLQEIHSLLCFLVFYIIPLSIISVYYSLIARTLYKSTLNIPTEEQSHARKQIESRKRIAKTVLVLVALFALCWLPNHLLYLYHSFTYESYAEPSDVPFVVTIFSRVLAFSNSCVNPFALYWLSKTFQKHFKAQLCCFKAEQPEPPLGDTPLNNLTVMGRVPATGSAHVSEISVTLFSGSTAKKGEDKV
Assay: agonist-induced Ca2+ mobilization, aequorin bioluminescence assay in CHO-K1 cells overexpressing BRS-3
Assay type: cell-based

EC50 [nM] | Compound
100 | COc1ccc2c(c1)C(=O)N(Cc1ccccc1)C(C(=O)NC(C)(C)C)c1ccccc1-2 (racemic) [compound-A, 6‐benzyl‐N‐tert‐butyl‐9‐methoxy‐7‐oxo‐6,7‐dihydro‐5H‐dibenzo[c,e]azepine‐5‐carboxamide]
130 | COc1ccc2c(c1)C(=O)N(Cc1ccccc1)C(C(=O)NC(C)(C)C)c1ccccc1-2 (racemic) [compound-C, compound‐C]
